Measured values from patent US10399972B2, “Tricyclic compounds as inhibitors of mutant IDH enzymes” (Merck Sharp & Dohme Corp., priority 2015, dated 2019).

Molecular target: R132H mutant IDH1 enzyme (Homo sapiens (Human), UniProt O75874, R132H)
Test: R132H IDH1 Enzymatic Assay
Format: biochemical
Details: 1.5 nM final, 30 min preincubation, 60 min reaction, Kinase-GLO luminescence
Method: R132H IDH1 Enzymatic Assay
Each test compound (10 mM stock in DMSO) is diluted in DMSO to make a 10-point, 3-fold dilution series. 125 nL of each dilution or DMSO alone is dispensed to a 384-well Greiner Lumitrac 200 assay plate using an Echo® Liquid Handler. To each well of the plate is added 20 uL of enzyme in assay buffer or assay buffer alone. Assay buffer consists of 50 mM sodium phosphate, pH 7.0, 50 mM magnesium chloride, 50 mM sodium chloride, and 0.01% (w/v) bovine serum albumin. When present, the R132H mutant IDH1 enzyme is at a working concentration of 1.875 nM (final concentration in assay of 1.5 nM). The assay plate is allowed to incubate for 30 minutes at room temperature and 5 uL of 5× substrate mixture (2.5 uM nicotinamide adenine dinucleotide phosphate, 100 uM adenosine diphosphate, 7.5 mM glyceraldehyde-3-phosphate, 7.5 ug/mL of spinach glyceraldehyde-3-phosphate dehydrogenase, 25 nM phosphoglycerate kinase, and 5 mM alpha-ketoglutarate in assay buffer) is added to all wells. The reaction plate is incubated for 60 minutes followed by addition of 25 uL of Promega Kinase-GLO reagent to all wells and 10-minute incubation.
Luminescence is measured using a PerkinElmer Envision plate reader. The percent activity of each dilution is determined as the ratio of background corrected signal to the background corrected signal of wells receiving only DMSO. IC50 values are determined by fitting percent activity data to a four-parameter logistic dose response equation. The IC50 values of the exemplified compounds are included in Table 8.

R132H mutant IDH1 enzyme, sequence (O75874 whole entry R132H): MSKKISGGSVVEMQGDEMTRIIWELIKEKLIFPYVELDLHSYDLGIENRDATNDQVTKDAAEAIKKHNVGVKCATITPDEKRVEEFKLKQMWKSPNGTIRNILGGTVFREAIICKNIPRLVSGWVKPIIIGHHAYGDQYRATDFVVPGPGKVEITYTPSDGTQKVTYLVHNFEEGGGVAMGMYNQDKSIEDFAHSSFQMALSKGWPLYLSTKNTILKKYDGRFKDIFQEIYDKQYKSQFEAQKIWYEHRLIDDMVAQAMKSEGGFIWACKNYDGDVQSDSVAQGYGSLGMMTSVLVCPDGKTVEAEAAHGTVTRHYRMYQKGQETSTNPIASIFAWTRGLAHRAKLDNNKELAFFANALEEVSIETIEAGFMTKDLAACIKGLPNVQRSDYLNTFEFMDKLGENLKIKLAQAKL

SMILES | IC50 [nM]
CO[C@H]1C[C@H]2CC[C@@H](C1)N2c1ccc2c(c1)N(C(=O)[C@H]1CC[C@H](OC(C)C)CO1)Cc1cc(F)cnc1N2 [Example 39, (3-fluoro-8-((1R,3S,5S)-3-methoxy-8-azabicyclo[3.2.1]octan-8-yl)-5,11-dihydro-6H-benzo[b]pyrido[2,3-e][1,4]diazepin-6-yl)((2R,5S)-5-isopropoxytetrahydro-2H-pyran-2-yl)methanone] | 10.4
CC(C)O[C@H]1CC[C@H](C(=O)N2Cc3cc(F)cnc3Nc3cc(F)c(N4C5CCC4COC5)cc32)CC1 [Example 26, [3,9-difluoro-8-(3-oxa-8-azabicyclo[3.2.1]oct-8-yl)-5,11-dihydro-6H-pyrido[2,3-b][1,5]benzodiazepin-6-yl][trans-4-(propan-2-yloxy)cyclohexyl]methanone] | 13.8
O=C(C1CCN(CC(F)(F)F)CC1)N1Cc2cc(F)cnc2Nc2cc(F)c(N3C[C@@H]4C[C@H]3CO4)cc21 [Example 20, (8-((1S,4S)-2-oxa-5-azabicyclo[2.2.1]heptan-5-yl)-3,9-difluoro-5,11-dihydro-6H-benzo[b]pyrido[2,3-e][1,4]diazepin-6-yl)(1-(2,2,2-trifluoroethyl)piperidin-4-yl)methanone] | 6.7
O=C(C1CCN(CC(F)(F)F)CC1)N1Cc2cc(F)cnc2Nc2ccc(N3CC4CCC3CO4)cc21 (single isomer, unassigned) [Example 8, (8-(2-oxa-5-azabicyclo[2.2.2]octan-5-yl)-3-fluoro-5,11-dihydro-6H-benzo[b]pyrido[2,3-e][1,4]diazepin-6-yl)(1-(2,2,2-trifluoroethyl)piperidin-4-yl)methanone] | 25.4
CO[C@H]1C[C@H]2CC[C@@H](C1)N2c1ccc2c(c1)N(C(=O)C1CCN(CC(F)(F)F)CC1)Cc1cc(F)cnc1N2 [Example 10, (3-fluoro-8-((1R,3r,5S)-3-methoxy-8-azabicyclo[3.2.1]octan-8-yl)-5,11-dihydro-6H-benzo[b]pyrido[2,3-e][1,4]diazepin-6-yl)(1-(2,2,2-trifluoroethyl)piperidin-4-yl)methanone] | 6.2
O=C(C1CCN(CC(F)(F)F)CC1)N1Cc2cc(F)cnc2Nc2ccc(N3C[C@@H]4C[C@H]3CO4)cc21 [Example 6, (8-((1S,4S)-2-Oxa-5-azabicyclo[2.2.1]heptan-5-yl)-3-fluoro-5,11-dihydro-6H-benzo[b]pyrido[2,3-e][1,4]diazepin-6-yl)(1-(2,2,2-trifluoroethyl)piperidin-4-yl)methanone] | 12.1
C[C@H]1CN(c2ccc3c(c2)N(C(=O)C2CCN(CC(F)(F)F)CC2)Cc2cc(F)cnc2N3)[C@@H](C)CO1 [Example 11, (8-((2S,5S)-2,5-dimethylmorpholino)-3-fluoro-5,11-dihydro-6H-benzo[b]pyrido[2,3-e][1,4]diazepin-6-yl)(1-(2,2,2-trifluoroethyl)piperidin-4-yl)methanone] | 23.8
CC(C)O[C@H]1CC[C@@H](C(=O)N2Cc3cc(F)cnc3Nc3ccc(N4C[C@@H]5C[C@H]4CO5)cc32)CC1 [Example 19, (8-((1S,4S)-2-oxa-5-azabicyclo[2.2.1]heptan-5-yl)-3-fluoro-5,11-dihydro-6H-benzo[b]pyrido[2,3-e][1,4]diazepin-6-yl)(cis-4-isopropoxycyclohexyl)methanone] | 6
O=C(C1CCN(CC(F)(F)F)CC1)N1Cc2cc(F)cnc2Nc2cc(F)c(N3C[C@H]4CC[C@@H]3CO4)cc21 [Example 31, (8-((1R,4R)-2-oxa-5-azabicyclo[2.2.2]octan-5-yl)-3,9-difluoro-5,11-dihydro-6H-benzo[b]pyrido[2,3-e][1,4]diazepin-6-yl)(1-(2,2,2-trifluoroethyl)piperidin-4-yl)methanone] | 18
CC(C)O[C@H]1CC[C@H](C(=O)N2Cc3cc(F)cnc3Nc3ccc(N4C[C@@H]5C[C@H]4CO5)cc32)CC1 [Example 18, (8-((1S,4S)-2-oxa-5-azabicyclo[2.2.1]heptan-5-yl)-3-fluoro-5,11-dihydro-6H-benzo[b]pyrido[2,3-e][1,4]diazepin-6-yl)(trans-4-isopropoxycyclohexyl)methanone] | 8.6
CC(C)O[C@H]1CC[C@H](C(=O)N2Cc3cc(F)cnc3Nc3ccc([C@@H]4COCCO4)cc32)OC1 [Example 34, (8-((R)-1,4-dioxan-2-yl)-3-fluoro-5,11-dihydro-6H-benzo[b]pyrido[2,3-e][1,4]diazepin-6-yl)((2R,5S)-5-isopropoxytetrahydro-2H-pyran-2-yl)methanone] | 23.4

More lines, now with the values ahead:

IC50 [nM] | SMILES
57 | CC(C)O[C@H]1CC[C@H](C(=O)N2Cc3cccnc3Nc3ccc(N4CC5CCC4CO5)c(F)c32)CC1 (stereo partly drawn) [Example 63, [7-fluoro-8-(2-oxa-5-azabicyclo[2.2.2]oct-5-yl)-5,11-dihydro-6H-pyrido[2,3-b][1,5]benzodiazepin-6-yl](trans-4-isopropoxycyclohexyl)methanone]
11.4 | CC(C)O[C@H]1CC[C@H](C(=O)N2Cc3cc(F)cnc3Nc3cc(F)c(N4CC5CCC4CO5)cc32)OC1 (stereo partly drawn) [Example 44, (8-(2-oxa-5-azabicyclo[2.2.2]octan-5-yl)-3,9-difluoro-5,11-dihydro-6H-benzo[b]pyrido[2,3-e][1,4]diazepin-6-yl)((2R,5S)-5-isopropoxytetrahydro-2H-pyran-2-yl)methanone]
112 | COc1ccc2c(c1)N(C(=O)[C@H]1CC[C@H](OC(C)C)CC1)C(C)c1cccnc1N2 (stereo partly drawn) [Example 68, (Trans-4-isopropoxycyclohexyl)(8-methoxy-5-methyl-5,11-dihydro-6H-benzo[b]pyrido[2,3-e][1,4]diazepin-6-yl)methanone]
103 | Cc1cnc2c(c1)CN(C(=O)[C@H]1CC[C@H](OC(C)C)CC1)c1cc(N3C[C@@H]4CC[C@H]3CO4)ccc1N2 [Example 69, (8-((1S,4S)-2-Oxa-5-azabicyclo[2.2.2]octan-5-yl)-3-methyl-5,11-dihydro-6H-benzo[b]pyrido[2,3-e][1,4]diazepin-6-yl)(trans-4-isopropoxycyclohexyl)methanone]
3.5 | Cn1nccc1-c1cc2c(cc1F)Nc1ncc(F)cc1CN2C(=O)C1CCN(CC(F)(F)F)CC1 [Example 50, (3,9-Difluoro-8-(1-methyl-1H-pyrazol-5-yl)-5,11-dihydro-6H-benzo[b]pyrido[2,3-e][1,4]diazepin-6-yl)(1-(2,2,2-trifluoroethyl)piperidin-4-yl)methanone]
54.1 | Cc1c(N2C[C@H]3CC[C@@H]2CO3)ccc2c1N(C(=O)[C@H]1CC[C@H](OC(C)C)CC1)Cc1cccnc1N2 [Example 61, (trans-4-isopropoxycyclohexyl){7-methyl-8-[(1R,4R)-2-oxa-5-azabicyclo[2.2.2]oct-5-yl]-5,11-dihydro-6H-pyrido[2,3-b][1,5]benzodiazepin-6-yl}methanone]
12 | CC(C)OC1CC[C@H](C(=O)N2Cc3cc(F)cnc3Nc3ccc(N4C[C@@H]5CC[C@H]4CO5)cc32)OC1 (stereo in doubt) [Example 49, (8-((1S,4S)-2-oxa-5-azabicyclo[2.2.2]octan-5-yl)-3-fluoro-5,11-dihydro-6H-benzo[b]pyrido[2,3-e][1,4]diazepin-6-yl)((2R,5R)-5-isopropoxytetrahydro-2H-pyran-2-yl)methanone]
23.7 | CC(C)O[C@H]1CC[C@H](C(=O)N2Cc3cc(F)cnc3Nc3cc(F)c([C@@H]4COCCO4)cc32)OC1 (single isomer, unassigned) [Example 36]
